Source: publication PMC11971462, “Generation and validation of a novel multitarget small molecule in glioblastoma” (Cell Death & Disease, 2025)

Test system: GNS166 cells
Experiment: Label-free proteomics differential expression
Format: cell-based, human
Experimental: Proteomic studies were performed by the Proteomics Facility of the CIC bioGUNE by label-free relative quantification on nLC MS/MS. […] In both approaches, the top 20 enriched terms were plotted and the pathways were clustered using divisive hierarchical clustering based on pairwise Jaccard distances.

C#CCN(Cc1cc2cc(OCCCN3CCCCC3)ccc2n1S(=O)(=O)c1ccccc1)C(=O)CCCCCCC(=O)NO [DDI]
LogFC STAU1_HUMAN (protein O95793): -0.5064 | LogFC BPNT1_HUMAN (protein O95861 GN=BPNT1): 0.8709 | Direction MBD3_HUMAN (protein O95983): Down | LogFC MBD3_HUMAN (protein O95983): -1.39 | Direction ZBED1_HUMAN (protein O96006): Down | LogFC ZBED1_HUMAN (protein O96006): -1.855 | Direction NSD2_HUMAN (protein O96028): Down | LogFC NSD2_HUMAN (protein O96028): -2.1573 | LogFC TPC2B_HUMAN (protein P0DI82 GN=TRAPPC2B): 1.676 | LogFC HS71A_HUMAN (protein P0DMV8 GN=HSPA1A): 0.6446 | LogFC AL1A1_HUMAN (protein P00352 GN=ALDH1A1): 1.798 | Direction EGFR_HUMAN (protein P00533): Down | LogFC EGFR_HUMAN (protein P00533): -0.977 | LogFC TPA_HUMAN (protein P00750 GN=PLAT): 1.254 | LogFC CAH2_HUMAN (protein P00918 GN=CA2): 2.905 | LogFC LDLR_HUMAN (protein P01130 GN=LDLR): -1.436 | LogFC TFR1_HUMAN (protein P02786 GN=TFRC): 0.6801 | LogFC TRFE_HUMAN (protein P02787 GN=TF): 1.471 | LogFC FRIL_HUMAN (protein P02792 GN=FTL): 2.1013 | LogFC GLCM_HUMAN (protein P04062 GN=GBA): 1.34 | Direction ANXA1_HUMAN (protein P04083): Down | LogFC ANXA1_HUMAN (protein P04083): -0.1864 | LogFC OAT_HUMAN (protein P04181 GN=OAT): 0.8669 | LogFC TBB4A_HUMAN (protein P04350 GN=TUBB4A): 2.022 | LogFC AT1B1_HUMAN (protein P05026 GN=ATP1B1): 0.7382 | LogFC CHLE_HUMAN (protein P06276 GN=BCHE): 1.793 | LogFC GELS_HUMAN (protein P06396 GN=GSN): 1.338 | Direction CDK1_HUMAN (protein P06493): Down | LogFC CDK1_HUMAN (protein P06493): -2.828 | LogFC H10_HUMAN (protein P07305 GN=H1-0): 2.4177 | Direction CAN1_HUMAN (protein P07384): Down | LogFC CAN1_HUMAN (protein P07384): -0.5477 | LogFC HEXB_HUMAN (protein P07686 GN=HEXB): 2.1461 | LogFC TNR16_HUMAN (protein P08138 GN=NGFR): 4.357 | LogFC ASNS_HUMAN (protein P08243 GN=ASNS): 0.9749 | LogFC ANXA5_HUMAN (protein P08758 GN=ANXA5): 0.5383 | Direction SRP19_HUMAN (protein P09132): Down | LogFC SRP19_HUMAN (protein P09132): -0.7201 | Direction HMGB1_HUMAN (protein P09429): Down | LogFC HMGB1_HUMAN (protein P09429): -0.3836 | LogFC SPRC_HUMAN (protein P09486 GN=SPARC): 0.9159 | Direction DPOLA_HUMAN (protein P09884): Down | LogFC DPOLA_HUMAN (protein P09884): -0.7754 | LogFC TZAP_HUMAN (protein P10074 GN=ZBTB48): 0.6846 | LogFC LYAG_HUMAN (protein P10253 GN=GAA): 1.719 | LogFC RRAS_HUMAN (protein P10301 GN=RRAS): 1.8337 | Direction COT1_HUMAN (protein P10589): Down | LogFC COT1_HUMAN (protein P10589): -2.0511 | LogFC PPGB_HUMAN (protein P10619 GN=CTSA): 1.238 | LogFC LAMC1_HUMAN (protein P11047 GN=LAMC1): 1.296 | LogFC MTAP2_HUMAN (protein P11137 GN=MAP2): 1.918 | Direction GTR1_HUMAN (protein P11166): Down | LogFC GTR1_HUMAN (protein P11166): -1.063 | LogFC GTR3_HUMAN (protein P11169 GN=SLC2A3): 0.7017 | Direction PYGM_HUMAN (protein P11217): Down | LogFC PYGM_HUMAN (protein P11217): -1.18 | LogFC LAMP1_HUMAN (protein P11279 GN=LAMP1): 0.9125 | Direction TOP2A_HUMAN (protein P11388): Down | LogFC TOP2A_HUMAN (protein P11388): -2.075 | LogFC G6PD_HUMAN (protein P11413 GN=G6PD): 0.8016 | LogFC PRPS2_HUMAN (protein P11908 GN=PRPS2): 1.0339 | Direction COBA1_HUMAN (protein P12107): Down | LogFC COBA1_HUMAN (protein P12107): -0.989 | Direction CO6A1_HUMAN (protein P12109): Down | LogFC CO6A1_HUMAN (protein P12109): -2.398 | LogFC LAMP2_HUMAN (protein P13473 GN=LAMP2): 0.7741 | LogFC MTDC_HUMAN (protein P13995 GN=MTHFD2): 1.415 | LogFC CBPM_HUMAN (protein P14384 GN=CPM): 1.371 | Direction CCNB1_HUMAN (protein P14635): Down | LogFC CCNB1_HUMAN (protein P14635): -2.713 | LogFC ARSA_HUMAN (protein P15289 GN=ARSA): 0.8733 | LogFC NQO2_HUMAN (protein P16083 GN=NQO2): 1.439 | Direction ITB4_HUMAN (protein P16144): Down | LogFC ITB4_HUMAN (protein P16144): -1.613 | LogFC CBR1_HUMAN (protein P16152 GN=CBR1): 1.143 | Direction ANK1_HUMAN (protein P16157): Down | LogFC ANK1_HUMAN (protein P16157): -1.996 | Direction GCFC2_HUMAN (protein P16383): Down | LogFC GCFC2_HUMAN (protein P16383): -2.09 | LogFC SYN1_HUMAN (protein P17600 GN=SYN1): 2.1979 | Direction CAN2_HUMAN (protein P17655): Down | LogFC CAN2_HUMAN (protein P17655): -0.5036 | LogFC DDX5_HUMAN (protein P17844 GN=DDX5): -0.6799 | Direction PFKAL_HUMAN (protein P17858): Down | LogFC PFKAL_HUMAN (protein P17858): -0.5357 | Direction ITB5_HUMAN (protein P18084): Down | LogFC ITB5_HUMAN (protein P18084): -1.897 | Direction SDC1_HUMAN (protein P18827): Down | LogFC SDC1_HUMAN (protein P18827): -2.102 | Direction PLCG1_HUMAN (protein P19174): Down | LogFC PLCG1_HUMAN (protein P19174): -1.036 | LogFC RXRA_HUMAN (protein P19793 GN=RXRA): -2.086 | Direction MX1_HUMAN (protein P20591): Down | LogFC MX1_HUMAN (protein P20591): -3.492 | LogFC FILA_HUMAN (protein P20930 GN=FLG): 2.48 | Direction RASA1_HUMAN (protein P20936): Down | LogFC RASA1_HUMAN (protein P20936): -0.7321 | LogFC VATB2_HUMAN (protein P21281 GN=ATP6V1B2): 1.09 | LogFC VATC1_HUMAN (protein P21283 GN=ATP6V1C1): 0.7781 | LogFC AOFA_HUMAN (protein P21397 GN=MAOA): 0.8861 | LogFC ACOC_HUMAN (protein P21399 GN=ACO1): 0.9989 | LogFC TGM2_HUMAN (protein P21980 GN=TGM2): 2.278 | Direction PTPRE_HUMAN (protein P23469): Down | LogFC PTPRE_HUMAN (protein P23469): -2.558 | Direction RIR1_HUMAN (protein P23921): Down | LogFC RIR1_HUMAN (protein P23921): -1.151 | Direction MCM3_HUMAN (protein P25205): Down | LogFC MCM3_HUMAN (protein P25205): -0.4173 | LogFC MOES_HUMAN (protein P26038 GN=MSN): -0.6643 | Direction DNMT1_HUMAN (protein P26358): Down | LogFC DNMT1_HUMAN (protein P26358): -0.8972 | Direction HMGB2_HUMAN (protein P26583): Down | LogFC HMGB2_HUMAN (protein P26583): -0.4752 | Direction SYVC_HUMAN (protein P26640): Down | LogFC SYVC_HUMAN (protein P26640): -0.2125
